A short description of series [1]: Toxicity in BALB/c mouse implanted with mouse 4T1 cells assessed as loss of body weight at 10 mg/kg, po administered 3 times a week for 30 days. It counts as organism-based. The following applies: in vivo, 720 h, time 30 day.
Series [2] concerns the target Calcium/calmodulin-dependent protein kinase type 1D (Homo sapiens) (UniProt Q8IU85). As to the kind of experiment: Inhibition of CAMK1 delta (unknown origin) at 50 nM by Z'LYTE screening method relative to control.
Series [3] addresses T1, Serine/threonine-protein kinase Chk1 (Homo sapiens) (UniProt O14757).
T1 sequence (whole entry): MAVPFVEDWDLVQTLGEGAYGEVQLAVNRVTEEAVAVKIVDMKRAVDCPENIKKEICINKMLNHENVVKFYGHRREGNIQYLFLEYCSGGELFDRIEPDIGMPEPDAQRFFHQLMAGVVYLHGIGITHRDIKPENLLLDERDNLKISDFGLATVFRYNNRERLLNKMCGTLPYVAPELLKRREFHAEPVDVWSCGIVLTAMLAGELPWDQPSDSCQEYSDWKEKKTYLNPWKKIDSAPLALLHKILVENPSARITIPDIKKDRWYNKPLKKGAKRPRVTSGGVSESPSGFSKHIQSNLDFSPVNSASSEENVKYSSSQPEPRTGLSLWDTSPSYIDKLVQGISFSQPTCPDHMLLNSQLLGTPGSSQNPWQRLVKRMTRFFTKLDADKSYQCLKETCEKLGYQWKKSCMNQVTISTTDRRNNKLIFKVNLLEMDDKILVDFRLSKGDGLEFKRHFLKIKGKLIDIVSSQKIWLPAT
As to the kind of experiment: Inhibition of CHK1 (unknown origin) at 50 nM by Z'LYTE screening method relative to control.

In series [4] the target is Mast/stem cell growth factor receptor Kit (Homo sapiens) (UniProt P10721). The series is described as follows: Inhibition of KIT (unknown origin) at 50 nM by Z'LYTE screening method relative to control.
Series [5] has as its target cAMP-dependent protein kinase (PKA) (Homo sapiens) (UniProt P22694+P17612+P22612). The series is described as follows: Inhibition of PKA (unknown origin) at 50 nM by Z'LYTE screening method relative to control. Format: protein assay.
Series [6] deals with T2, Inhibitor of nuclear factor kappa-B kinase subunit beta (Homo sapiens) (UniProt O14920).
T2 sequence (whole entry): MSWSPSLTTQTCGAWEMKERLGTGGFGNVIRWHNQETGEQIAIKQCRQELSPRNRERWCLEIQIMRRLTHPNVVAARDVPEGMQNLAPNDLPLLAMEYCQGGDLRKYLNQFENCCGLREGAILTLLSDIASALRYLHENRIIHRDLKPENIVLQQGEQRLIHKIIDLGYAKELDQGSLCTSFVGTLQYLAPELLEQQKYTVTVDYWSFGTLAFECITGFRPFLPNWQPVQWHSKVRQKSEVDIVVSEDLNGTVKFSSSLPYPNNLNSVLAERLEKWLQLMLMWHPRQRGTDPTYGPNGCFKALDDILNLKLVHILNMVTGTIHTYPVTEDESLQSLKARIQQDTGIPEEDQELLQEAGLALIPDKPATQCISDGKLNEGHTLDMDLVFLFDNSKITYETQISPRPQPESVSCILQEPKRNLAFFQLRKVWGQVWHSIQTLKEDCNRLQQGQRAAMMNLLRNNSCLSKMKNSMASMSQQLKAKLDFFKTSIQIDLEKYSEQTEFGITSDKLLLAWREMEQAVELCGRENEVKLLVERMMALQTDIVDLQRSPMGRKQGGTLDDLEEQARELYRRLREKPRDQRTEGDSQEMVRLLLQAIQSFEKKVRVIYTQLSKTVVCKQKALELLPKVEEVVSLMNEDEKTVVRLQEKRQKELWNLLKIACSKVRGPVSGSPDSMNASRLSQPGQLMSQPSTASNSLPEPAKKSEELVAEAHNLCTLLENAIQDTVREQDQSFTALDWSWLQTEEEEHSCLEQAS
As to the kind of experiment: Inhibition of IKKbeta (unknown origin) at 50 nM by Z'LYTE screening method relative to control.

Series [7] addresses Tyrosine-protein kinase JAK2 (Homo sapiens) (UniProt O60674). As to the kind of experiment: Inhibition of JAK2 (unknown origin) at 50 nM by Z'LYTE screening method relative to control.
Series [8] concerns the target T3, TGF-beta receptor type-1 (Homo sapiens) (UniProt P36897).
T3 sequence (whole entry): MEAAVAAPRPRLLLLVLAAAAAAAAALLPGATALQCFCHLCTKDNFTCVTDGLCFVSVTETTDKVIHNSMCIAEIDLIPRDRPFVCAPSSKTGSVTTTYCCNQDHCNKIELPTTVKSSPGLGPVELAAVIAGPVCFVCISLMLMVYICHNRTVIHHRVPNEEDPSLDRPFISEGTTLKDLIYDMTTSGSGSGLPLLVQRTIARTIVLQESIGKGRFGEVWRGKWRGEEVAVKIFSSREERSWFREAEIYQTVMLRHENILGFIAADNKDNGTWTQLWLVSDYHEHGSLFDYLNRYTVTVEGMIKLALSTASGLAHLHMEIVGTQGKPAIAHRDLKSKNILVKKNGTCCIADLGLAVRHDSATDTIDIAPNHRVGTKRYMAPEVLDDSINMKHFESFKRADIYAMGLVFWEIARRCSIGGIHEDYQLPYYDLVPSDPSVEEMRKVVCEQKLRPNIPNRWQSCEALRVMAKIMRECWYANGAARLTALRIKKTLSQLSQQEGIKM
As to the kind of experiment: Inhibition of TGFBR1 (unknown origin) at 50 nM by Z'LYTE screening method relative to control.

In series [9] the target is T4, Cyclin-dependent kinase 5/CDK5 activator 1 (Homo sapiens) (UniProt Q00535+Q15078). As to the kind of experiment: Inhibition of CDK5/p25 (unknown origin) at 50 nM by Z'LYTE screening method relative to control. It counts as protein-complex assay.
In series [10] the target is T4, Cyclin-dependent kinase 5/CDK5 activator 1 (Homo sapiens). As to the kind of experiment: Inhibition of CDK5/p35 (unknown origin) at 50 nM by Z'LYTE screening method relative to control. It counts as protein-complex assay.
For series [11], the system named is 4T1. The series is described as follows: Anti-metastasis activity in mouse 4T1 cells xenografted in BALB/c mouse assessed as lung metastases at 10 mg/kg, po administered 3 times a week for 30 days. It counts as functional, organism-based. To be noted: time 30.0 day.
The test system of series [12] is 4T1. The series is described as follows: Antitumor activity against mouse 4T1 cells xenografted in BALB/c mouse assessed as tumor growth inhibition at 10 mg/kg, po administered 3 times a week for 30 days. It counts as functional, organism-based. To be noted: time 30.0 day.
The subject of series [13] is MDA-MB-231. As to the kind of experiment: Inhibition of clonogenicity in human MDA-MB-231/M cells assessed as reduction in colony formation incubated for 7 days by crystal violet staining based analysis. Format: functional, cell-based. To be noted: time 7.0 day.

Structures are written as SMILES. Activity calls are given as the source filed them. The calls are words filed in the database; no cut-off is given here.

Tyrosine-protein kinase JAK2 (Homo sapiens), sequence (O60674 whole entry): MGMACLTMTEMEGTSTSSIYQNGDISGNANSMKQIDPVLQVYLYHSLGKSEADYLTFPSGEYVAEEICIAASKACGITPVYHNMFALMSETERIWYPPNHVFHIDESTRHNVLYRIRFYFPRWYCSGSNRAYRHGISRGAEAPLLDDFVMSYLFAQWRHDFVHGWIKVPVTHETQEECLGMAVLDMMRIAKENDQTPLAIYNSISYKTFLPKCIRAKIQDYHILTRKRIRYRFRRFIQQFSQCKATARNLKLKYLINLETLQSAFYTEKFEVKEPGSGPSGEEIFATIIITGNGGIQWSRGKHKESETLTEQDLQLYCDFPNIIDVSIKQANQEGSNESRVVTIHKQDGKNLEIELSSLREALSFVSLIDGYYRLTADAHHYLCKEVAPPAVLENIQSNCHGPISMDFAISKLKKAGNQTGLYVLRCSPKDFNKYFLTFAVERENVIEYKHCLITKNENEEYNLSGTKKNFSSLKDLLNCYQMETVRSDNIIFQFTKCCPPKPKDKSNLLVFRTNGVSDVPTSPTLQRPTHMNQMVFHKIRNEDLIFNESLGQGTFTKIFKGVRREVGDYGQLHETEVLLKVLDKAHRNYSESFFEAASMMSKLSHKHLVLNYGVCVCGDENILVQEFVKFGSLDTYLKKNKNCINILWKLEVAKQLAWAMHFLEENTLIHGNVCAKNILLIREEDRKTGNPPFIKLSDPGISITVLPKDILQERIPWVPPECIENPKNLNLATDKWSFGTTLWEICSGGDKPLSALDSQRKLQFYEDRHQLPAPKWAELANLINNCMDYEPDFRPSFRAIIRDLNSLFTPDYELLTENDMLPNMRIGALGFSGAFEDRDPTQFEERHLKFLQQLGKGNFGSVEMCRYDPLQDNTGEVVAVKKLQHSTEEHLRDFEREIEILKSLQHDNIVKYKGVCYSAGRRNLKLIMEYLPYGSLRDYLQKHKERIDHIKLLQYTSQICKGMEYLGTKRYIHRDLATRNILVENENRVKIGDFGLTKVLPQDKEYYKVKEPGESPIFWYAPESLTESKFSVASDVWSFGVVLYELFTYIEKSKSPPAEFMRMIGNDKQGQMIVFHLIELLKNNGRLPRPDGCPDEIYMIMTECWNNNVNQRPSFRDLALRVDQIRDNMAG
Mast/stem cell growth factor receptor Kit (Homo sapiens), sequence (P10721 whole entry): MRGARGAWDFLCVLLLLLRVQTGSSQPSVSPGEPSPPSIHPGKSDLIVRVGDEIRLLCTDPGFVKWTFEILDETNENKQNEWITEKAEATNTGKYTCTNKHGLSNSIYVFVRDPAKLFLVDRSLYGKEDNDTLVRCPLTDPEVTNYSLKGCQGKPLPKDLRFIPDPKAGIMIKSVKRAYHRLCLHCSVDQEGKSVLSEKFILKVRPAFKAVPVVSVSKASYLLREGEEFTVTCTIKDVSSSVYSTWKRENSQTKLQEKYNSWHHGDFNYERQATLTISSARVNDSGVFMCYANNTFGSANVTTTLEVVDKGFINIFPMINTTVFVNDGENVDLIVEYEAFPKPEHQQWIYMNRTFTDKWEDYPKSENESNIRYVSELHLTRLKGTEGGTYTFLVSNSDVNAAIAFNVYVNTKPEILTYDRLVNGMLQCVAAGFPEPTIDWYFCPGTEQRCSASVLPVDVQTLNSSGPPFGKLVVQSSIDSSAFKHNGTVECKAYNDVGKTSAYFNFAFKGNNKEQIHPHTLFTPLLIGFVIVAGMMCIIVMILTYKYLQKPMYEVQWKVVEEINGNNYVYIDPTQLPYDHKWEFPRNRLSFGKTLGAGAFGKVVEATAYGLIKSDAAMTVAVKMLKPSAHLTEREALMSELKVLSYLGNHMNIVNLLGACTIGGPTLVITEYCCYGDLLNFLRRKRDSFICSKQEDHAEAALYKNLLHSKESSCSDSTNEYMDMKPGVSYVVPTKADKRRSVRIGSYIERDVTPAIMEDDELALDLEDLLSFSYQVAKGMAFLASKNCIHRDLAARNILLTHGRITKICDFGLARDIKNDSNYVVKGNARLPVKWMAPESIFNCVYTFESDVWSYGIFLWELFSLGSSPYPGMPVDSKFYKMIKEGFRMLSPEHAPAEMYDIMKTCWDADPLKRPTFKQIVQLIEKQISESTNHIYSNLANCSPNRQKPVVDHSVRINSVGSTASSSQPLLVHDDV
Calcium/calmodulin-dependent protein kinase type 1D (Homo sapiens), sequence (Q8IU85 whole entry, looked up): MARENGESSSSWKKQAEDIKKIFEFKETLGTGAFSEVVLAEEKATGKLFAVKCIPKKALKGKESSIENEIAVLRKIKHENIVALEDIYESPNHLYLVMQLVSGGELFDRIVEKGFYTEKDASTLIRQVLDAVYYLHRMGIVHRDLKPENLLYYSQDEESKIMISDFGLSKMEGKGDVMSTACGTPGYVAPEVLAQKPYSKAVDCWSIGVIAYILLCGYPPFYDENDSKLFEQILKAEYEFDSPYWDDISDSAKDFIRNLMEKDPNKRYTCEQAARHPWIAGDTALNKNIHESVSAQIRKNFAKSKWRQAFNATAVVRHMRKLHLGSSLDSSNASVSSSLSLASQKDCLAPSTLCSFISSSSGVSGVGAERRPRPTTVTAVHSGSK
T4 sequence (Q00535 whole entry): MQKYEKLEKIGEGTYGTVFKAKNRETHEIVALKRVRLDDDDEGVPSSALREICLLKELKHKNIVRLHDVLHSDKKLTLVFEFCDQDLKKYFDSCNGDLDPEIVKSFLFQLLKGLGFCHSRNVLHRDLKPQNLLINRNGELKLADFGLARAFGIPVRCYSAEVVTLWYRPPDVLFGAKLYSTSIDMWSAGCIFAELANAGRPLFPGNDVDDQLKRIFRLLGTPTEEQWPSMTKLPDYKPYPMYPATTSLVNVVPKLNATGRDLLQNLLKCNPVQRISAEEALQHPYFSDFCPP
T4 sequence (Q15078 99-307 partner limits assumed): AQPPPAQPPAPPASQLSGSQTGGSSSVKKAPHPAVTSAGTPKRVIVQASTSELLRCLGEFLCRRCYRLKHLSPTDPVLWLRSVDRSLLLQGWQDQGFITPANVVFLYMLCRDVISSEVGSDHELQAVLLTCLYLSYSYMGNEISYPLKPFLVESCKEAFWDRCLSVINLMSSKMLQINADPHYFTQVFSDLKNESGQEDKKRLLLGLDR

A word on the inhibition: it is the relative decrease from the control value, in per cent. Turning to `O=C1c2ccccc2CN1c1nc(NC2CCCCC2)c2nc[nH]c2n1`, the Activity result in [1] is listed as “Toxic”. The inhibition in [2] was determined as 0%; in series [3], 0%; in series [4] it was 1%; in series [5] it was 12%; in [6], 6%; in series [7], 15%. Further, the inhibition amounted to 3% in [8], 0% in [9] and 2% in [10].
As for `O=c1c2ccccc2[se]n1-c1nc(NC2CCCCC2)c2nc[nH]c2n1`, the inhibition came out at 1% in series [2]; 0% in series [3]; 1% in series [4]; 22% in series [5]; 6% in series [6]; 17% in [7]. For the same compound, the figures for the inhibition in series [8], in [9] and in [10] were 11%, 4% and 2%, respectively.
Turning to `O=c1c2ccccc2[se]n1-c1nc(N[C@H]2CC[Se]C2)c2nc[nH]c2n1`, the outcome in series [11] and in [12] was Active. Also, in series [1], the Activity entry is on record as “Non-Toxic”. For the same compound, the inhibition was determined as 5% in series [2]; 4% in series [3]; 2% in series [4]; 53% in series [5]; 9% in series [6]; 18% in series [7]. For the same compound, the inhibition in series [8] was 0%; in [9] it was 8%; in [10] it was 1%. Further, the inhibition result in series [13] was “Active”.

(Values after ChEMBL document CHEMBL5154740, “Novel Aurora A and Protein Kinase C (α, β1, β2, and θ) Multitarget Inhibitors: Impact of Selenium Atoms on the Potency and Selectivity” (J Med Chem, 2022).)
